Test results: PubChem BioAssay AID2060893 (Molecular Pharmacology Branch, DTP, NCI, 2025)
Each block holds one molecule with its values, some of them ahead of it.

Test system: K86415-001-R-J1-PDC complex spheroids, viability
Test: Anticancer human tumor K86415-001-R-J1-PDC patient-derived lung adenocarcinoma cell line growth inhibition [RAS]
Details: for IC50: curve of first compound; for viability, T/C: stronger effect = lower value
Procedure, shortened: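 Agents were tested in combination matrices in half-log decrements from a top concentration at or near clinical Cmax (10 microM if undetermined). Targets were multi-cell spheroids of tumour lines plus HUVEC and MSC stromal cells.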

[1] = second compound 0.00316 µM, first compound 0.000949 µM
[2] = second compound 0.00316 µM, first compound 0.003 µM
[3] = second compound 0.00316 µM, first compound 0.00949 µM
[4] = second compound 0.00316 µM, first compound 0.03 µM
[5] = second compound 0.00316 µM, first compound 0.0949 µM
[6] = second compound 0.00316 µM, first compound 0.3 µM
[7] = second compound 0.01 µM, first compound 0.000949 µM
[8] = second compound 0.01 µM, first compound 0.003 µM
[9] = second compound 0.01 µM, first compound 0.00949 µM
[10] = second compound 0.01 µM, first compound 0.03 µM
[11] = second compound 0.01 µM, first compound 0.0949 µM
[12] = second compound 0.01 µM, first compound 0.3 µM
[13] = second compound 0.0316 µM, first compound 0.000949 µM
[14] = second compound 0.0316 µM, first compound 0.003 µM
[15] = second compound 0.0316 µM, first compound 0.00949 µM
[16] = second compound 0.0316 µM, first compound 0.03 µM
[17] = second compound 0.0316 µM, first compound 0.0949 µM
[18] = second compound 0.0316 µM, first compound 0.3 µM
[19] = second compound 0.1 µM, first compound 0.000949 µM
[20] = second compound 0.1 µM, first compound 0.003 µM
[21] = second compound 0.1 µM, first compound 0.00949 µM
[22] = second compound 0.1 µM, first compound 0.03 µM
[23] = second compound 0.1 µM, first compound 0.0949 µM
[24] = second compound 0.1 µM, first compound 0.3 µM
[25] = second compound 0.316 µM, first compound 0.000949 µM
[26] = second compound 0.316 µM, first compound 0.003 µM
[27] = second compound 0.316 µM, first compound 0.00949 µM
[28] = second compound 0.316 µM, first compound 0.03 µM
[29] = second compound 0.316 µM, first compound 0.0949 µM
[30] = second compound 0.316 µM, first compound 0.3 µM
[31] = second compound 1 µM, first compound 0.000949 µM
[32] = second compound 1 µM, first compound 0.003 µM
[33] = second compound 1 µM, first compound 0.00949 µM
[34] = second compound 1 µM, first compound 0.03 µM
[35] = second compound 1 µM, first compound 0.0949 µM
[36] = second compound 1 µM, first compound 0.3 µM
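Also: spheroids exposed to agents for seven days before readout.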

IC50 (second compound 0.00316 µM): < 0.949 nM
IC50 (second compound 0.01 µM): < 0.949 nM
IC50 (second compound 0.0316 µM): < 0.949 nM
IC50 (second compound 0.1 µM): < 0.949 nM
IC50 (second compound 0.316 µM): < 0.949 nM
IC50 (second compound 1 µM): < 0.949 nM
SMILES: CC1(C)CCC(Nc2ncc(C(F)(F)F)c(-c3c[nH]c4c(P(C)(C)=O)c(C#N)ccc34)n2)CN1 (centres undefined) + C=CC(=O)N1CCN(c2nc(OCC3CCCN3C)nc3c(F)c(-c4nc(N)cc(C)c4C(F)(F)F)c(Cl)cc23)C(C)C1
viability, T/C [1]: 18.3%
viability, T/C [2]: 22.2%
viability, T/C [3]: 18.7%
viability, T/C [4]: 20.3%
viability, T/C [5]: 22.7%
viability, T/C [6]: 22.8%
viability, T/C [7]: 15.2%
viability, T/C [8]: 12.7%
viability, T/C [9]: 16.9%
viability, T/C [10]: 13.3%
viability, T/C [11]: 15.5%
viability, T/C [12]: 20.2%
viability, T/C [13]: 12.8%
viability, T/C [14]: 14%
viability, T/C [15]: 12.7%
viability, T/C [16]: 14.5%
viability, T/C [17]: 15.6%
viability, T/C [18]: 16.5%
viability, T/C [19]: 11.2%
viability, T/C [20]: 12.5%
viability, T/C [21]: 12.7%
viability, T/C [22]: 13.1%
viability, T/C [23]: 13.9%
viability, T/C [24]: 14.9%
viability, T/C [25]: 9.63%
viability, T/C [26]: 13.1%
viability, T/C [27]: 12.1%
viability, T/C [28]: 12.8%
viability, T/C [29]: 13.8%
viability, T/C [30]: 13.4%
viability, T/C [31]: 10.9%
viability, T/C [32]: 11.1%
viability, T/C [33]: 13.6%
viability, T/C [34]: 13.8%
viability, T/C [35]: 15.9%
viability, T/C [36]: 14.9%

IC50 (second compound 0.00316 µM): < 0.949 nM
IC50 (second compound 0.01 µM): < 0.949 nM
IC50 (second compound 0.0316 µM): < 0.949 nM
IC50 (second compound 0.1 µM): < 0.949 nM
IC50 (second compound 0.316 µM): < 0.949 nM
IC50 (second compound 1 µM): < 0.949 nM
SMILES: CCc1c2c(nc3ccc(O)cc13)-c1cc3c(c(=O)n1C2)COC(=O)[C@]3(O)CC + C=CC(=O)N1CCN(c2nc(OCC3CCCN3C)nc3c(F)c(-c4nc(N)cc(C)c4C(F)(F)F)c(Cl)cc23)C(C)C1
viability, T/C [1]: 19.9%
viability, T/C [2]: 18.5%
viability, T/C [3]: 14.5%
viability, T/C [4]: 13.7%
viability, T/C [5]: 8.97%
viability, T/C [6]: 4.41%
viability, T/C [7]: 11.6%
viability, T/C [8]: 10.7%
viability, T/C [9]: 11.3%
viability, T/C [10]: 9.32%
viability, T/C [11]: 8.86%
viability, T/C [12]: 4.64%
viability, T/C [13]: 10.1%
viability, T/C [14]: 9.35%
viability, T/C [15]: 8.29%
viability, T/C [16]: 8.73%
viability, T/C [17]: 8.33%
viability, T/C [18]: 4.32%
viability, T/C [19]: 8.25%
viability, T/C [20]: 9.14%
viability, T/C [21]: 10.9%
viability, T/C [22]: 7.98%
viability, T/C [23]: 6.67%
viability, T/C [24]: 3.89%
viability, T/C [25]: 10%
viability, T/C [26]: 9.61%
viability, T/C [27]: 9.94%
viability, T/C [28]: 10.7%
viability, T/C [29]: 7.22%
viability, T/C [30]: 4.36%
viability, T/C [31]: 9.61%
viability, T/C [32]: 11%
viability, T/C [33]: 8.27%
viability, T/C [34]: 8.66%
viability, T/C [35]: 6.75%
viability, T/C [36]: 2.88%
